From the METLIN SMRT retention time set (Domingo-Almenara et al. 2019)
Each block holds one molecule with its values, some of them ahead of it.

Assay: gradient 5% acetonitrile 3 min, to 50% in 2 min, to 85% in 15 min, held 3 min, 100 µL/min
Settings: column: Zorbax Extend-C18 2.1 x 50 mm; eluents: water / acetonitrile, 0.1% formic acid
Method in brief: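 Using water and acetonitrile that each contained 0.1% formic acid, mixtures of ~100 pure standards were separated at 100 μL/min on a Zorbax Extend-C18 column (2.1 × 50 mm, 1.8 μm). The HPLC fed a quadrupole time-of-flight mass spectrometer working in positive and negative ionization mode, with dead and dwell volumes of 40 μL and 900 μL. Data were acquired over 3 months. Retention time was read from computationally picked adduct peaks after manual inspection of each.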

SMILES: COc1ccc(CN2C[C@@H]3C(=O)N(CCCN4CCCC4=O)C(=O)[C@@H]3C2)cc1OC
RP-LC retention time: 575 s

SMILES: CCOCCOC1CCN(C(=O)Nc2ccc3c(c2)OCCO3)CC1
RP-LC retention time: 708 s

SMILES: Cc1cc(C)cc(Nc2nc(C)cc3nn(CC(=O)N4CCC(C)CC4)c(=O)n23)c1
RP-LC retention time: 1160 s

SMILES: Cc1nn(-c2ccccc2)c(C)c1CCC(=O)NCCN(C)C
RP-LC retention time: 590 s

SMILES: CCCc1nc(-c2cc3ccc(C)cc3nc2NC2CCCC2)no1
RP-LC retention time: 968 s

SMILES: O=C(Nc1nccs1)C1CCN(S(=O)(=O)C2CC2)CC1
RP-LC retention time: 632 s

SMILES: O=C(NC1CCN(c2cc(-c3ccc(Cl)cc3)[nH]n2)C1)c1cccc(OC(F)(F)F)c1 (stereo not drawn)
RP-LC retention time: 862 s

SMILES: Cc1cnc(C(=O)N[C@@H]2CCC[C@@H]2C(=O)N2CCSCC2)cn1
RP-LC retention time: 633 s

SMILES: Cn1nc(C(=O)N2CCCCC2)c2c1CCN(C(=O)CCC(=O)NCCN1CCCC1)C2
RP-LC retention time: 578 s

SMILES: Cc1ccc(-n2nnc(-c3nc(C)c(C(=O)N4CCC(C(N)=O)CC4)s3)c2C)cc1C
RP-LC retention time: 742 s

SMILES: O=C(NCC(F)(F)F)C1CCN(Cc2noc(-c3ccc(F)cc3)n2)CC1
RP-LC retention time: 642 s

SMILES: c1ccc2c(c1)nnn2-c1ccncc1
RP-LC retention time: 699 s

SMILES: CCCNC(=O)C1CCCN(c2ccc(SCC(=O)Nc3ccc4c(c3)OCO4)nn2)C1 (stereo not drawn)
RP-LC retention time: 642 s

SMILES: CCCn1c(=O)c(C)nc2cc(-c3noc(C4CC(=O)N(c5cccc(Cl)c5)C4)n3)ccc21 (stereo not drawn)
RP-LC retention time: 1050 s

SMILES: Nc1nc(Cl)nc2c1ncn2[C@H]1C[C@H](O)[C@@H](CO)O1
RP-LC retention time: 593 s

SMILES: O=C(c1cccc(N2CCNC(c3ccccc3)C2)n1)N1CCCCC1 (stereo not drawn)
RP-LC retention time: 615 s

SMILES: COCCn1c(SCc2nc(-c3cccc(F)c3)no2)nc2cc3c(cc2c1=O)OCO3
RP-LC retention time: 1090 s

SMILES: Cc1c(Cl)cccc1NC1=NS(=O)(=O)c2ccccc21
RP-LC retention time: 813 s

SMILES: CC(C)c1cc(Oc2c(Br)cc(NC(=O)CC(=O)O)cc2Br)ccc1O
RP-LC retention time: 940 s

SMILES: CC1Cn2cc(C(=O)NCCN3CCN(C)CC3)c(=O)c3c(Cl)ccc(c32)O1 (stereo not drawn)
RP-LC retention time: 590 s

SMILES: CCOC(=O)NCC1CCN(Cc2ccccc2SC)CC1
RP-LC retention time: 566 s

SMILES: COc1ccccc1CCNC(=O)CCc1csc(NC(=O)NC2CCCCC2)n1
RP-LC retention time: 786 s

SMILES: O=C(CC(SCCO)c1ccc([N+](=O)[O-])cc1)c1ccco1 (stereo not drawn)
RP-LC retention time: 715 s

SMILES: CCn1ccc(C(=O)Nc2ccccc2)n1
RP-LC retention time: 801 s

SMILES: O=C(Nc1cccnc1)C1CCCN(c2nnc3ccc(Cl)cn23)C1 (stereo not drawn)
RP-LC retention time: 567 s

SMILES: CCc1ccc(C2=C(C)C(N3CCCN(C(=O)CC4CCCC4)CC3)=NS2(=O)=O)cc1
RP-LC retention time: 984 s

SMILES: CC(C)[C@@H]1CC[C@@H](C)C[C@@H]1P(=O)(c1ccccc1)c1ccccc1
RP-LC retention time: 1290 s

SMILES: CC(C)COc1cc(=O)n2c(c1C(=O)N1CCOCC1)CCCCC2
RP-LC retention time: 656 s

SMILES: Cc1nnc(C2CC3(CCN(CC(C)C)CC3)CN2CCc2ccccc2)o1 (stereo not drawn)
RP-LC retention time: 612 s

SMILES: CCCN1CCN(C(=O)c2ccc3c(c2)Sc2ncccc2C(=O)N3CC)CC1
RP-LC retention time: 579 s

SMILES: CCC(NC(=O)C1CCCN(c2cnc3nccnc3c2)C1)c1cccs1 (stereo not drawn)
RP-LC retention time: 728 s

SMILES: CNC(=O)C1CCCN(c2nc3ncn(CC(=O)Nc4c(C)cc(C)cc4C)c(=O)c3s2)C1 (stereo not drawn)
RP-LC retention time: 661 s

SMILES: CC1CCc2[nH]nc(C(=O)NC3CCCC3)c2C1 (stereo not drawn)
RP-LC retention time: 806 s

SMILES: CC1CCN(S(=O)(=O)c2cccn(CC(=O)OC(C)(C)C)c2=O)CC1
RP-LC retention time: 965 s

SMILES: COCC(=O)Nc1cc2c(cc1N(C)C)n(C)c(=O)c(=O)n2C
RP-LC retention time: 606 s

SMILES: COc1ccc(S(=O)(=O)CCc2noc(C(=O)N3CCC4(CC3)OCCO4)n2)cc1
RP-LC retention time: 763 s

SMILES: Cc1cn2c(CCC(=O)NCCn3nc(-c4ccco4)ccc3=O)csc2n1
RP-LC retention time: 539 s

SMILES: COc1cccc(-n2nnc(C(=O)O)c2C(F)(F)F)c1
RP-LC retention time: 752 s

SMILES: CCOc1ccc(Nc2c(C(=O)N3CCC(C)CC3)cnc3nc(C)ccc23)cc1
RP-LC retention time: 661 s

SMILES: Cn1c(COc2ccc(Cl)cc2)nc2ccccc21
RP-LC retention time: 647 s

SMILES: O=C(NC1CC1)C1CCN(c2nc3ccc(-c4cccnc4)nc3s2)CC1
RP-LC retention time: 598 s

Next, values leading:

RP-LC retention time: 918 s
SMILES: O=c1ccc(-c2nc(-c3ccc(Br)cc3)no2)cn1Cc1cc(=O)n2ccccc2n1

RP-LC retention time: 744 s
SMILES: CN(C)c1ccc(CNC(=O)C2CCCN(c3nccnc3Sc3ccccc3)C2)cc1 (stereo not drawn)

RP-LC retention time: 1130 s
SMILES: CC1=NS(=O)(=O)N(Cc2ccccc2)C=C1C(=O)OCc1noc(-c2cccc(F)c2)n1

RP-LC retention time: 965 s
SMILES: CC(=O)Nc1ccc(NC(=O)c2cc3sccc3n2Cc2ccc(Cl)cc2)cc1

RP-LC retention time: 850 s
SMILES: CNC(=O)N1CCCC(c2cccc(C(=O)NCc3cccc(C(F)(F)F)c3)c2)C1 (stereo not drawn)

RP-LC retention time: 641 s
SMILES: O=C(Nc1ccc(Br)cc1)Nc1c(-c2ccncc2)nc2ccccn12

RP-LC retention time: 832 s
SMILES: CCOC(=O)c1cccc(Nc2nc(-c3cccnc3)nc3ccccc23)c1

RP-LC retention time: 691 s
SMILES: O=C(Nc1ccccc1)N1CCC(N2CCN(Cc3cccc(F)c3)C(=O)C2=O)CC1

RP-LC retention time: 938 s
SMILES: O=c1n(Cc2ccccc2F)nc2c(S(=O)(=O)N3CCCCCC3)cccn12

RP-LC retention time: 1060 s
SMILES: COc1ccc(N2CCN(c3cc(SCC(=O)Nc4cc(C)cc(C)c4)ncn3)CC2)cc1

RP-LC retention time: 931 s
SMILES: CCOC(=O)c1nc(NCc2ccc(F)cc2)c2ccccc2n1

RP-LC retention time: 708 s
SMILES: CC(C)C(=O)N1CCc2cc(CNC(=O)c3ccnn3C)ccc21

RP-LC retention time: 618 s
SMILES: CCN1CCN(c2cc(C(=O)O)c3cc(NS(=O)(=O)c4ccccc4C)ccc3n2)CC1

RP-LC retention time: 997 s
SMILES: Cc1ccc(-c2cn3c(CC(=O)N4CCN(c5ccc(Cl)cc5)CC4)csc3n2)cc1C

RP-LC retention time: 942 s
SMILES: Cc1ccc(CNC(=O)C2(C)CN(S(=O)(=O)c3ccccc3)CC(=O)N2c2ccc(F)cc2)cc1 (stereo not drawn)

RP-LC retention time: 852 s
SMILES: COc1ccc2[nH]cc(CCNC(=O)c3cc4n(n3)CCCN(Cc3ccc(F)cc3)C4=O)c2c1

RP-LC retention time: 1020 s
SMILES: O=C(CSc1ccc(F)cc1)OCc1cc(-c2ccc3c(c2)OCO3)on1

RP-LC retention time: 610 s
SMILES: CCNC(=O)C1Cc2cc(C(F)(F)F)ccc2N2CCN(Cc3ccc(F)cc3)CC12 (stereo not drawn)

RP-LC retention time: 802 s
SMILES: COCCN1C(=O)CCc2cc(NS(=O)(=O)c3ccc(C)c(F)c3)ccc21

RP-LC retention time: 1020 s
SMILES: CCc1nn2c(CNS(=O)(=O)c3ccccc3CC)c(-c3ccccc3)nc2s1

RP-LC retention time: 849 s
SMILES: Cc1cccc(NC(=O)C2CCCN(c3ncnc4onc(-c5ccc(F)cc5)c34)C2)n1 (stereo not drawn)

RP-LC retention time: 917 s
SMILES: O=C(NCCC1=CCCCC1)C1CCN(Cc2cc3ccccc3n2Cc2ccc(Cl)cc2)CC1

RP-LC retention time: 874 s
SMILES: COc1cc2c(cc1CNC(=O)COc1ccc(F)cc1)OCCCO2

RP-LC retention time: 854 s
SMILES: Cc1ccc(N(C)S(=O)(=O)c2ccc3c(c2)CCCC(=O)N3)cc1C

RP-LC retention time: 1230 s
SMILES: CCn1cc(-c2ccc(C)cc2)cc1C(=O)N1CCC(C)CC1

RP-LC retention time: 798 s
SMILES: Cn1nccc1-c1cccc(-c2noc(CNC(=O)c3ccccc3)n2)c1

RP-LC retention time: 1060 s
SMILES: CC[C@H](NC(=O)c1c(C)c(-c2ccccc2)nc2ccccc12)c1ccccc1

RP-LC retention time: 640 s
SMILES: CC(NC(=O)C1=CCN(Cc2ccc(F)cc2)CC1)c1ccccc1 (stereo not drawn)

RP-LC retention time: 750 s
SMILES: Cc1ccc(CNC(=O)Nc2cc3c(cc2N2CCOCC2)n(C)c(=O)n3C)cc1

RP-LC retention time: 1060 s
SMILES: COc1ccc(N2CCN(c3cc(SCC(=O)Nc4cccc(Cl)c4C)ncn3)CC2)cc1

RP-LC retention time: 662 s
SMILES: COCC(=O)N1CCCN(C2=NS(=O)(=O)C(c3ccccc3)=C2C)CC1

RP-LC retention time: 977 s
SMILES: Cc1ccc(C)c(NC(=O)Cn2cccc2-c2nnc(C3CCC3)o2)c1

RP-LC retention time: 1080 s
SMILES: CSc1cccc(NC(=O)Cn2nc(-n3cccc3)c3c(C)cc(C)nc32)c1

RP-LC retention time: 1040 s
SMILES: O=C(NCc1ccccc1)c1cc(-c2ccc(F)cc2)ns1

RP-LC retention time: 866 s
SMILES: CC1(C(=O)NCc2ccc(F)cc2)CN(S(C)(=O)=O)CC(=O)N1Cc1ccc(Cl)cc1 (stereo not drawn)

RP-LC retention time: 986 s
SMILES: O=C(CSc1ccccn1)Nc1nc(-c2ccccc2)cs1

RP-LC retention time: 1260 s
SMILES: Cc1ccc(-c2csc(-n3nc(C)c(CC(=O)Nc4ccc(C)cc4C)c3C)n2)cc1

RP-LC retention time: 775 s
SMILES: COc1ccc(CNC(=O)c2nc(N3CCSCC3)c3cnn(C)c3n2)cc1

RP-LC retention time: 1100 s
SMILES: O=C(NCc1csc(-c2ccccc2)n1)C1CCN(S(=O)(=O)c2ccc3c(c2)CCCC3)CC1

RP-LC retention time: 699 s
SMILES: CCOc1ccc(NC(=O)C2CCN(S(=O)(=O)c3cn(C)cn3)CC2)cc1

RP-LC retention time: 804 s
SMILES: Cn1cccc1C(=O)NCCn1c(=O)n(Cc2ccc(F)cc2)c2cccnc21

RP-LC retention time: 817 s
SMILES: CCn1nc(N2CCCC(NS(=O)(=O)c3ccc(F)c(Cl)c3)C2)ccc1=O (stereo not drawn)

RP-LC retention time: 699 s
SMILES: CC(=O)Nc1nc(N2CCC(C(=O)NCc3ccccc3)CC2)sc1C(=O)N1CCCC1

RP-LC retention time: 781 s
SMILES: O=C(CSc1nnc2c3cc(-c4ccccc4)nn3ccn12)NCc1ccccc1

RP-LC retention time: 638 s
SMILES: CC1CCCN(CCCNC(=O)c2cc(=O)n3c(nc4ccccc43)s2)C1 (stereo not drawn)

RP-LC retention time: 939 s
SMILES: Cc1c(-c2nn3c(Cc4ccccc4)nnc3s2)nnn1-c1ccccc1

RP-LC retention time: 610 s
SMILES: Cc1noc(CNC(=O)C2CCN(C(=O)c3cc(-c4ccccc4)n[nH]3)CC2)n1
